Laboratory results: ChEMBL document CHEMBL1134573, “Utilization of a peptide lead for the discovery of a novel PTP1B-binding motif” (J Med Chem, 2001)
Starred links: 1 amine or outer side, 2 acyl side, 3 side chain; linkers in the order of their positions; H or OH if unused. Non-standard residues stand in square brackets, D forms with d. Residues, ends and D or L forms follow the SMILES beside them. X1 = O=C(O)COc1ccc(C[C@H](N[*:1])C(=O)[*:2])cc1C(=O)O; F2Pmp = N[C@@H](Cc1ccc(C(F)(F)P(=O)(O)O)cc1)C(=O)O

These molecules were tested against T1, Tyrosine-protein phosphatase non-receptor type 1 (Homo sapiens, UniProt P18031) (assay: Inhibitory activity against human Protein-tyrosinephosphatase 1B (PTP1B)).
T1 sequence (P18031 whole entry): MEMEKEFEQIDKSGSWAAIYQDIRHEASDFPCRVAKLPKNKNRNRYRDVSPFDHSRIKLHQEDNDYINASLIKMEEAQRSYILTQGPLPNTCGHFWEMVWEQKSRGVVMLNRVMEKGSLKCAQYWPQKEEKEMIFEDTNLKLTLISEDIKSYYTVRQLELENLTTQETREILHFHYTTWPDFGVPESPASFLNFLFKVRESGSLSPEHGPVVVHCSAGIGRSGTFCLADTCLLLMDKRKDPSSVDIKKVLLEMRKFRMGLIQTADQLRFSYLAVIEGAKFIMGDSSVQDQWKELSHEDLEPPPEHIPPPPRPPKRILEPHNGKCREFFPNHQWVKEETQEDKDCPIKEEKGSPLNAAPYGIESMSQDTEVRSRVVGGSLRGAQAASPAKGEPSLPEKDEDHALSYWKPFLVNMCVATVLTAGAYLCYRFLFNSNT
Molecule `COc1ccc2cc(C(=O)O)ccc2c1C(=O)O` has an IC50 of 20 mM.
With `O=S(=O)(O)c1ccc2c(S(=O)(=O)O)cc(S(=O)(=O)O)cc2c1` the IC50 was greater than 4 mM.
With `O=S(=O)(O)c1ccc2cc(S(=O)(=O)O)ccc2c1` the IC50 was greater than 4 mM.
`O=C(O)c1ccc2cc(OC(F)(F)C(=O)O)ccc2c1` showed an IC50 of 9.4 mM.
`CS(=O)(=O)Nc1cccc2cc(S(=O)(=O)O)ccc12` gave an IC50 of 29 mM.
With `O=C(O)c1ccc2c(C(=O)O)cccc2c1` the Ki was 0.031 mM.
`O=C(O)COc1cc2ccc(C(=O)O)cc2cc1C(=O)O` was tested, and the Ki was 0.25 mM.
With `O=S(=O)([O-])c1cccc2c(S(=O)(=O)[O-])cccc12.[Na+].[Na+]` the IC50 was 28 mM.
`NC(=O)[C@H](CCC(=O)O)NC(=O)c1ccc2c(C(=O)O)c(OCC(=O)O)ccc2c1` showed an IC50 of 3.8 mM.
Molecule `O=C(O)COc1ccc2cc(C(=O)O)ccc2c1C(=O)O` has a Ki of 0.9 mM.
`O=C(O)c1ccc2ccc(C(=O)O)cc2c1` gave an IC50 greater than 3.2 mM.
For `COC(=O)c1ccc2c(C(=O)O)c(OC)ccc2c1`, the IC50 was 2.8 mM.
Molecule `O=C(O)c1ccc2cc(C(=O)O)ccc2c1` has an IC50 greater than 4 mM.
`NC(=O)[C@@H](CCC(=O)O)NC(=O)c1ccc2cc(C(F)(F)P(=O)(O)O)ccc2c1` was tested, and the Ki was 0.012 mM.
In the case of `O=C(O)c1ccc2cc(C(F)(F)P(=O)(O)O)ccc2c1`, the Ki is reported as 0.022 mM.
`O=C(O)c1ccc2c(C(=O)O)c(O)ccc2c1` gave an IC50 of 12 mM.
With `O=C(O)COc1ccc2cc(C(=O)O)ccc2c1` the IC50 was 9.4 mM.
Work on `CC(=O)N[C@@H](CC(=O)O)C(=O)N[C@@H](C)C(=O)N[C@@H](CC(=O)O)C(=O)N[C@@H](CCC(=O)O)C(=O)N[C@@H](Cc1ccc(C(F)(F)P(=O)(O)O)cc1)C(=O)N[C@@H](CC(C)C)C(N)=O` (Ac-DADE[F2Pmp]L-NH2) yielded a Ki of 0.0002 mM.
With `CC(=O)N[C@@H](CC(=O)O)C(=O)N[C@@H](C)C(=O)N[C@@H](CC(=O)O)C(=O)N[C@@H](CCC(=O)O)C(=O)N[C@@H](Cc1ccc(OCC(=O)O)c(C(=O)O)c1)C(=O)N[C@@H](CC(C)C)C(N)=O` (Ac-DADE[X1]L-NH2) the Ki was 0.0036 mM.
